# From EP2229935A1, “Peptide derivatives or pharmaceutically acceptable salts thereof, method for producing the same, use of said derivatives and pharmaceutical composition” (Nebolsin, Vladimir Evgenievich, priority 1997, dated 1999)
# Read-outs that look alike come from different tables or passages of the source. Marks after values point to notes of the source that are not given here.
# Key:
# [1] = system: white mongrel male rats; assay: Paw edema induced by Freund's complete adjuvant; assay type: in vivo; settings: rats, FCA edema; once 50 µg/kg 1 hour before edema induction
# Description: Experiment was carried out on white mongrel male rats weghing 280-300 g. The model of paw edema induced by Freund's complete adjuvant (FCA), was reproduced according to the method of Ezamuzie and Umezurike [Ezamuzie Ch., Umezurike C.C. Effect of histamine H2-receptor antagonists on acute inflammatory of the rat paw oedema. J. Pharmacol. (1989), Vol. 41, pp. 261-265]. Paw volume measurement was done using a plethysmograph (Ugo Basile). Inhibition of inflammatory reaction expressed in percent, as calculated according to the formula: 100-[(R-L(exper.))/(L):(R-L(control))/(L)x100](%) [formula] where R - the right paw volume, L - the left paw volume.
# Each group included 10 animals.
# Group of animals: • Group 1 - control, animals were administered 0.5 ml of 1% starch solution. • Group 2 - animals were administered the compound XLVIII. • Group 3 - animals were administered the compound III. • Group 4 - animals were administered Naproxene.
# [2] = system: white mongrel male rats; assay: Carrageenan paw edema, oral administration (series I); assay type: in vivo; settings: once 20 µg/kg 1 hour before edema induction
# Description: Experiment was carried out on white mongrel male rats weighing 280-300 g. Carrageenan-induced edema was caused according to the method of Winter et al. [[inter et al. In: De Rosa M., Giroud J.P., Willoughby D.A. Studies of the mediators of the acute inflammatory reponse induced in rats in different sites by carrageenan and turpentine. […] Paw volume measurement was done using a plethysmograph (Ugo Basile) 1, 3 and 4 hours after carrageenan administration. Inhibition of inflammatory reaction expressed in percent, was calculated according to the formula: 100-[(R-L(exper.))/(L):(R-L(control))/(L)x100](%) [formula] where R - the right paw volume, L - the left paw volume.
# Series I of experiment. […] The reference drug Naproxene was once administered at a dose 20 µg/kg 1 hour before edema induction. Each group included 10 animals.
# [3] = system: mongrel rats; assay: Antiischemic activity: necrosis zone after coronary artery occlusion (myocardial infarction); assay type: in vivo; settings: 4 hours after occlusion, single intraperitoneal immediately after occlusion, 1000 µg/kg
# Description: Antiischemic activity of a compound was assessed by an integral test, i.e. effect on the necrosis zone area following reproduction of myocardial infarction in mongrel rats weighing 250-300 g.
# Effect of a compound on the necrosis zone area was studied in 4 hours after arterial occlusion in rats using a differential indicator method [Sernov L.N., Gatsura V.V. A differential indicator method for determinig ischemic and necrotic zone in experimental myocardial infarction in rats. Bulletin of Experimental Biology and Medicine (1989), No 5, pp. 534-535]. All the painful manipulations were performed on animals under Ethaminal anesthesia (Ethaminal - 40 mg/kg intraperitoneally). Experiment was carried out in 15 hours after the last compound administration. Each group included 8 animals.
# Groups of animals: • Group 1 - intact control -administration of normal saline four times. • Groups 2 and 3 - oral administration of the compound III at doses respectively 50 and 500 µg/kg for 4 days. • Group 4 - single intraperitoneal administration of Nicorandil at a dose 1 mg/kg immediately after occlusion.
# [4] = system: Lewis pulmonary carcinoma (LLC); assay: Lewis pulmonary carcinoma spontaneous metastasizing, oral administration; assay type: in vivo; settings: BDF1 female mice with LLC, oral 24 days; for Mean number of metastases: day 25
# Description: Each group included 15 animals. 0.3 ml of LLC tumor tissue suspension was intramuscularly injected to mice. Henks solution was used as a solvent. […] Moscow (1992) 13 pp.]. […]
# [5] = system: superoxide anion-radical; assay: Superoxide anion-radical formation in the xantine-xantine oxidase system (chemiluminescence); assay type: biochemical
# [6] = system: peritoneal macrophages; assay: Activity of peritoneal macrophages (NBT reduction test); assay type: in vivo, mongrel white male mice
# Description: Change in the activity of peritoneal macrophages (PM) as effected by the test compounds was studied.
# Experiments were carried out on mongrel white male mice with initial body mass 20-22 g. Each group included 10 animals. Compounds III, VI, XLIV were dissolved in normal saline (NS). The test compounds were administered to animals orally for three days at doses 50 and 500 µg/kg. Animals of the control group were given equal volume of NS. Mice were sacrified 20 hours after the last compound administration, peritoneal cavity was washed with 1.5 ml Henks solution comprising 5 U/ml heparine. 0.1 ml of wash solution were incubated for 30 minutes at 37°C with 0.1 ml 0.2% nitroblue tetrasolium (NBT) solution, then smears were prepared. Nuclei were additionaly stained with o.1% neutral red solution. Results were expressed in percent of active cells [Klimov V.V., Kolovkina T.V. Nitroblue tetrasolium reduction test stimulated with pyrogenal. Laborotornoye delo (Laboratory matter) (1982), No 10, pp. 624-625]. […]
# [7] = system: mongrel male rats; settings: po, 96 h
# [8] = system: hepatic P-450 cytochrome system; assay: Hexenal sleep duration in mice; assay type: in vivo; settings: CBF1 mice, oral 3 days, control 25.91 ± 1.57
# Description: Change in Hexenal sleep (HS) duration is the in vivo measurable index of hepatic P-450 cytochrome system condition.
# Studies were carried out on male mice of the lines BALB/c*h75, C57B1/6, CBA, DBA/2, first generation CBF1 and BDF1 hybrides, with initial mass 18-20 g, each group including 10 mice; and on mongrel male guinea pigs with initial mass 250-300 g, each group including 24 animals. All the test compounds (from II to LII) were administered orally in drinking water and for three days at doses 50 and 500 µg/kg. Hexenal hydrochloride at a dose […] of animal mass was administered 24 hours after the last drug administration, except for line BALB/c*h75 mice, which were administered Hexenal at a dose 60 µg/kg at the same terms, and guinea pigs for which Hexenal dose was 30 µg/kg. HS duration was determined in minutes.
# [9] = system: hydroxyl radical; assay: Hydroxyl radical formation in the Fenton reagent (chemiluminescence); assay type: biochemical
# Description: Active oxygen forms (AOF) of different nature were generated in the following systems: • A. Hydroxyl radical - in the mixture of FeSO4 with H2O2 (the Fenton reagent) [Halliwell B. Superoxide-dependent formation of hydroxyl radicals in the presence of iron salts. […] Incubation medium comprised 5 mM KH2PO4 (pH 7.4); 5 mM FeSO4; 2 mM luminol. H2O2 at final concentration 5 mM was introduced into a cuvette through a dispencer following background luminescence recording of the reagents' mixture. 5 to 10 ml of the test compounds dissolved in water were at needed concentration introduced into a cuvette.
# CL flash recording duration after mixing ingredients, depended on a particular process kinetics. For each system, CL light sum (mV) was determined in the control samples without preparations (I-) and in samples comprising respective concentrations of preparations (I+). To estimate CL inhibition (activation) degree, the I+/I- ratio (in relative units) was found in the studied systems.
# When H2O2 was introduced into phosphate buffer comprising iron sulfate, CL flash occured which was caused by formation of predominantly hydroxyl radical in the reaction mixture.
# [10] = system: mongrel male rats; assay: Hypolipidemic activity: experimental hyperlipidemia (atherogenic load); settings: atherogenic diet, oral last four days; for HDL-CS / Total CS / Triglycerides: blood; for Kcs: cholesterol index;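 for all read-outs here: serum drawn 18 h after the final dose from rats deprived of food over that interval, groups of 10 animals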
# [11] = system: Isolate HIV-1/IV17 of type 1 human immunodeficiency virus; assay: Viability of MT-4 cells acutely infected with HIV-1; assay type: cell-based; settings: Human immunodeficiency virus 1, MT4, 168 h, day 7, series 2 (infected cells 24, non-infected 88), read-out: Viability of cells in percent
# Description: Study was carried out on the culture of human lymphoblastoid cells MT-4. Isolate HIV-1/IV17 of type 1 human immunodeficiency virus from the collection of the D.I.Ivanovsky Institute for Virology was used in experiment. The test compounds of general formula (I): III, VI, VII were introduced into cellular culture at concentrations 1.0; 0.1 and 0.01 µg/ml. The reference drug Azidothymidine was introduced at a dose 0.05 µM/ml. The compounds were introduced into the culture of MT-4 cells at a dose 1000 TCD50 one hour prior to virus introduction. Viability of MT-4 cells was estimated by day 7 of experiment.
# Viability of cells was the main efficacy parameter of the test compounds.
# [12] = system: Strain Aichi of type A human influenza virus; assay type: in vivo; settings: for MLT, days: series with Control - 2 (9.1), 3 days before and 10 days following infection; for Survival rate in percent: series with Control - 2 (34.5); for Protection degree in percent: series with Control - 2
# [13] = 0.01 mM, control of the series as in the table
# [14] = 0.1 mM, control of the series as in the table
structure (smiles),measurement,setting,value
"COc1ccc2cc([C@H](C)C(=O)O)ccc2c1 [Naproxene, reference compound]",Inflammation inhibition (%),[1],44%
same,Volume increment,[1],0.45 ± 0.02
same,Volume of paws (conditional units) Right,[1],1.75 ± 0.54 conditional units
same,Volume of paws (conditional units) left,[1],1.30 ± 0.25 conditional units
same,Inflammation inhibition (%),[2],37%
same,Volume increment,[2],0.48 ± 0.02
same,Volume of paws (conditional units) Right,[2],1.82 ± 0.54 conditional units
same,Volume of paws (conditional units) left,[2],1.34 ± 0.25 conditional units
"O=C(NCCO[N+](=O)[O-])c1cccnc1 [Nicorandil, reference compound]","Ischemia zone, percent to the total myocardial mass",[3],"25,0 ± 1,9%"
same,Necrosis zone percent to myocardial zone,[3],"44,3 ± 5,0%"
same,"Necrosis zone, percent to the total myocardial mass",[3],"11,3 ± 1,6%"
"CC(=O)N[C@@H](CCC(=O)NCCc1c[nH]cn1)C(=O)O [VI, N -ACETHYL-γ-L-GLUTAMYLHISTAMINE]",Mean number of metastases,[4]; 50 µg/kg,35.5 ± 4.5*^2
same,Mean number of metastases,[4]; 500 µg/kg,39.0 ± 14.0
same,Metastasizing inhibition percent,[4]; 50 µg/kg,24.0%
same,Metastasizing inhibition percent,[4]; 500 µg/kg,17.0%
same,Chemiluminiscence intensity (mV) + σn-1,[5]; [13],7295 ± 106 mV
same,relative effect: 1+/I-,[5]; 0.1 mM,0.76
same,Chemiluminiscence intensity (mV) + σn-1,[5]; [14],5518 ± 131 mV
same,relative effect: 1+/I-,[5]; 1 mM,0.12
same,Chemiluminiscence intensity (mV) + σn-1,"[5]; 1 mM, control of the series 5616 ± 173, 5391 ± 195, 7290 ± 128 or 6776 ± 150",902 ± 15 mV
same,portion of active macrophages,"[6]; mice, oral three days at 50 and 500 µg/kg",at a dose 50 µg/kg
same,"Activity of macrophages, percent","[6]; score 0 (no formazane inclusions, inactive PM), 50 µg/kg orally for three days",17.9 ± 1.4%
same,"Activity of macrophages, percent","[6]; score 0 (no formazane inclusions, inactive PM), 500 µg/kg orally for three days",20.3 ± 3.4%
same,"Activity of macrophages, percent","[6]; score 1 (single formazane inclusions), 50 µg/kg orally for three days",30.9 ± 3.0%
same,"Activity of macrophages, percent","[6]; score 1 (single formazane inclusions), 500 µg/kg orally for three days",37.9 ± 3.1%
same,"Activity of macrophages, percent","[6]; score 2 (inclusions fill up to 1/3 of PM cytoplasm), 50 µg/kg orally for three days",40.3 ± 2.1%
same,"Activity of macrophages, percent","[6]; score 2 (inclusions fill up to 1/3 of PM cytoplasm), 500 µg/kg orally for three days",34.0 ± 4.0%
same,"Activity of macrophages, percent","[6]; score 3 (inclusions fill up to 1/2 of PM cytoplasm), 50 µg/kg orally for three days",10.4 ± 1.9%
same,"Activity of macrophages, percent","[6]; score 3 (inclusions fill up to 1/2 of PM cytoplasm), 500 µg/kg orally for three days",7.1 ± 2.0%
same,LDL-CS+ VLDL-CS,[7]; 0.05 mg/kg,"50,3±5,5**^A"
same,LDL-CS+ VLDL-CS,[7]; 0.5 mg/kg,"25,0±1,6***^A"
same,Hexenal sleep duration (minutes),[8]; 50 µg/kg,16.86 ± 1.38*** minutes
same,Hexenal sleep duration (minutes),[8]; 500 µg/kg,14.39 ± 1.73*** minutes
same,Chemiluminiscence intensity (mV) + σn-1,[9]; [13],5014 ± 186 mV
same,relative effect: I+/I-,[9]; 0.1 mM,0.63
same,Chemiluminiscence intensity (mV) + σn-1,[9]; [14],3110 ± 210 mV
same,relative effect: I+/I-,[9]; 1 mM,0.05
same,Chemiluminiscence intensity (mV) + σn-1,"[9]; 1 mM, control of the series 7839 ± 171, 1120 ± 163, 4974 ± 283 or 1332 ± 172",257 ± 74 mV
same,HDL-CS,[10]; 50 µg/kg,"35,7±5,6*^A"
same,Total CS,[10]; 50 µg/kg,"86,0±5,2"
same,Triglycerides,[10]; 50 µg/kg,"141,2±16,1***^A"
same,HDL-CS,[10]; 500 µg/kg,"45,8±3,5***^A"
same,Total CS,[10]; 500 µg/kg,"70,8±3,7***^A"
same,Triglycerides,[10]; 500 µg/kg,"127,2+7,1***^A"
same,Kcs,[10]; 50 µg/kg,"1,41±0,16***^A"
same,Kcs,[10]; 500 µg/kg,"0,55±0,04***^A"
same,viability at 0.01 µg/mL,[11]; 0.01 µg/ml,45%
same,viability at 0.1 µg/mL,[11]; 0.1 µg/ml,49%
same,viability at 1 µg/mL,[11]; 1.0 µg/ml,54%
same,"MLT, days",[12]; 50 µg/kg orally,11.24*^2 days
same,"MLT, days",[12]; 500 µg/kg orally,11.62*^2 days
same,Survival rate in percent,[12]; 50 µg/kg orally,73.3*^2%
same,Survival rate in percent,[12]; 500 µg/kg orally,79.3*^2%
same,Protection degree in percent,[12]; 50 µg/kg orally,38.8%
same,Protection degree in percent,[12]; 500 µg/kg orally,44.8%
